According to patent US10010558B2, “Frankiamicin A compositions and methods” (STC.UNM, priority 2015, dated 2018):
Like-named read-outs stand apart in the source and are kept apart here.

How the values were obtained:
Format in all cases: cell-based
[1] = test system: methicillin-resistant S. aureus (MRSA); experiment: Antimicrobial MTT viability assay, MRSA; settings: for MIC: MRS(A)
[2] = test system: Y. pestis
[3] = test system: S. pyogenes; experiment: Antimicrobial MTT viability assay, S. pyogenes
[4] = test system: T. cruzi (ATCC 30013); experiment: T. cruzi viability assay by microscopy; settings: 100 μM frankiamicin A, eight days
[5] = test system: C. albicans; experiment: Antimicrobial MTT viability assay, C. albicans; settings: 0-100 μM
[6] = test system: MC; experiment: Anticancer MTT viability assay, MC cells; settings: MC cancer cell line, 48 hours incubation, 0-100 μM
[7] = test system: He; experiment: Anticancer MTT viability assay, He cells; settings: He cancer cell line, 48 hours incubation, 0-100 μM
[8] = test system: Jurk; experiment: Anticancer MTT viability assay, Jurk cells; settings: Jurk cancer cell line, 48 hours incubation, 0-100 μM
[9] = test system: P. aeruginosa; experiment: Antimicrobial MTT viability assay, P. aeruginosa
[10] = test system: A. baumanii; experiment: Antimicrobial MTT viability assay, A. baumanii
[11] = test system: S. aureus; experiment: Antimicrobial MTT viability assay, S. aureus; settings: for MIC: S. aureus
Procedure: Antimicrobial and anticancer assays were conducted by quantifying viability of cells exposed to frankiamicin A (2-fold serial diluted in DMSO) at concentrations ranging from 0-100 μM using an MTT assay (Frolova et al., 2013, J Med Chem 56:6886-6900). For antimicrobial assays, a liquid culture of each test strain was grown overnight at 37° C. in TSB media in a rotary incubator. The resulting culture was diluted 1:100 into fresh media and 100 μL aliquots were transferred to a 96-well plate. Serial diluted compound was added to individual wells and cells were incubated at 37° C. for either 6 hours or 18 hours prior to MTT assay. Anticancer assays were conducted using approximately 4000 cells incubated overnight at 37° C. in 100 μL DMEM media supplemented with 10% FBS, adding serial diluted compound, and incubating for 48 hours prior to MTT assay. Assays of T. cruzi (ATCC 30013) were conducted by growing cells unshaken at 25° C. in ATCC Medium 1029 (LIT Medium) for five days, diluting 1:10 into fresh media, adding 100 μM frankiamicin A, incubating for an additional eight days, and assessing cell viability by microscopy using an untreated control for comparison.

frankiamicin A
MIC ([1]; assessed after 6 h incubation): ~ | MIC ([1]; assessed after 18 h incubation): >1 µM | antimicrobial activity ([1]; methicillin-resistant S. aureus (MRSA)): detectable antimicrobial activity | MIC ([2]; assessed after 6 h incubation): >1 µM | MIC ([2]; assessed after 18 h incubation): >1 µM | MIC ([3]; assessed after 6 h incubation): >1 µM | MIC ([3]; assessed after 18 h incubation): >1 µM | IC50 [4]: > 1000 nM | IC50 [5]: > 1000 nM | IC50 [6]: > 1000 nM | IC50 [7]: > 1000 nM | IC50 [8]: > 1000 nM | MIC ([9]; assessed after 6 h incubation): >1 µM | MIC ([9]; assessed after 18 h incubation): >1 µM | MIC ([10]; assessed after 6 h incubation): >1 µM | MIC ([10]; assessed after 18 h incubation): >1 µM | MIC ([11]; assessed after 6 h incubation): ~1 µM | MIC ([11]; assessed after 18 h incubation): >1 µM | antimicrobial activity ([11]; wild-type S. aureus): detectable antimicrobial activity
